Experimental data published in patent US8778964B2, “Hydroxy-substituted imidazo[1,2-a]-pyridinecarboxamides and their use” (Bayer Pharma Aktiengesellschaft, priority 2012, dated 2014).
Structures can show the parent of a compound that is named as a salt.

tested on: recombinant guanylate cyclase reporter cell line; experiment: Action on recombinant guanylate cyclase reporter cell line (MEC); format: cell-based; settings: in some cases mean values obtained from individual determinations
Method: B-2. Action on Recombinant Guanylate Cyclase Reporter Cell Line
The cellular action of the compounds according to the invention is determined on a recombinant guanylate cyclase reporter cell line, as described in F. Wunder et al., Anal. Biochem. 339, 104-112 (2005).
Representative values (MEC=minimal effective concentration) for the compounds according to the invention are shown in the following table (in some cases as mean values obtained from individual determinations): […]

Compound	minimal effective concentration [µM]
Cc1nc2c(OCc3c(F)cccc3F)cc(Cl)cn2c1C(=O)N[C@@H](CO)CCO [Example 128, 6-chloro-8-[(2,6-difluorobenzyl)oxy]-N-[(2R)-1,4-dihydroxybutan-2-yl]-2-methylimidazo[1,2-a]pyridine-3-carboxamide]	0.3
Cc1nc2c(OCc3c(F)cccc3F)cccn2c1C(=O)NC(CO)CC(F)(F)F (racemic) [Example 113, rac-8-[(2,6-Difluorobenzyl)oxy]-2-methyl-N-(4,4,4-trifluoro-1-hydroxybutan-2-yl)imidazo[1,2-a]-pyridine-3-carboxamide]	0.03
Cc1nc2c(OCc3c(F)cccc3F)cccn2c1C(=O)NC(CO)CC(F)(F)F (single isomer, unassigned; ent-8) [Example 121, ent-8-[(2,6-Difluorobenzyl)oxy]-2-methyl-N-(4,4,4-trifluoro-1-hydroxybutan-2-yl)imidazo[1,2-a]-pyridine-3-carboxamide]	0.03
Cc1nc2c(OCc3c(F)cccc3F)cccn2c1C(=O)NC(CO)c1ccc(F)cc1 (single isomer, unassigned; ent-8) [Example 107, ent-8-[(2,6-Difluorobenzyl)oxy]-N-[1-(4-fluorophenyl)-2-hydroxyethyl]-2-methylimidazo[1,2-a]-pyridine-3-carboxamide]	0.1
COCC(O)CNC(=O)c1c(C)nc2c(OCC3CCCCC3)cccn12 (centres unmarked) [Example 79, 8-(cyclohexylmethoxy)-N-(2-hydroxy-3-methoxypropyl)-2-methylimidazo[1,2-a]pyridine-3-carboxamide]	0.3
Cc1nc2c(OCc3c(F)cccc3F)cccn2c1C(=O)NC(C)C(O)C(F)(F)F (single isomer, unassigned) [Example 143, 8-[(2,6-Difluorobenzyl)oxy]-2-methyl-N-(4,4,4-trifluoro-3-hydroxybutan-2-yl)imidazo[1,2-a]-pyridine-3-carboxamide]	0.03
Cc1nc2c(OCC3CCCCC3)cccn2c1C(=O)N[C@@H](C)CO [Example 75, 8-(cyclohexylmethoxy)-N-[(2S)-1-hydroxypropan-2-yl]-2-methylimidazo[1,2-a]pyridine-3-carboxamide]	0.22
CC[C@H](CO)NC(=O)c1c(C)nc2c(OCC3CCCCC3)cccn12 [Example 72, 8-(cyclohexylmethoxy)-N-[(2R)-1-hydroxybutan-2-yl]-2-methylimidazo[1,2-a]pyridine-3-carboxamide]	0.1
Cc1nc2c(OCc3ccccc3)cccn2c1C(=O)N[C@@H](C)CO [Example 46, 8-(Benzyloxy)-N-[(2S)-1-hydroxypropan-2-yl]-2-methylimidazo[1,2-a]pyridine-3-carboxamide]	3
Cc1nc2c(OCc3ccccc3Cl)cccn2c1C(=O)NC(CO)CO [Example 50, 8-[(2-chlorobenzyl)oxy]-N-(1,3-dihydroxypropan-2-yl)-2-methylimidazo[1,2-a]pyridine-3-carboxamide]	6.5
Cc1nc2c(OCC3CCCCC3)cccn2c1C(=O)NCCCO [Example 82, 8-(cyclohexylmethoxy)-N-(3-hydroxypropyl)-2-methylimidazo[1,2-a]pyridine-3-carboxamide]	0.3
CCCC[C@H](CO)NC(=O)c1c(C)nc2c(OCc3cccc4c3OC(F)(F)O4)cccn12 [Example 12, 8-[(2,2-difluoro-1,3-benzodioxol-4-yl)methoxy]-N-[(2R)-1-hydroxyhexan-2-yl]-2-methylimidazo[1,2-a]-pyridine-3-carboxamide]	3
Cc1nc2c(OCc3c(F)cccc3F)cccn2c1C(=O)NC[C@H](O)c1ccccc1 [Example 33, 8-[(2,6-difluorobenzyl)oxy]-N-[(2R)-2-hydroxy-2-phenylethyl]-2-methylimidazo[1,2-a]pyridine-3-carboxamide]	0.3
Cc1cccc(COc2cccn3c(C(=O)NC(CO)CO)c(C)nc23)c1Cl [Example 52, 8-[(2-chloro-3-methylbenzyl)oxy]-N-(1,3-dihydroxypropan-2-yl)-2-methylimidazo[1,2-a]-pyridine-3-carboxamide]	10
CCCC[C@H](CO)NC(=O)c1c(C)nc2c(OCc3cccc(C)c3F)cccn12 [Example 11, 8-[(2-fluoro-3-methylbenzyl)oxy]-N-[(2R)-1-hydroxyhexan-2-yl]-2-methylimidazo[1,2-a]pyridine-3-carboxamide]	1.5
Cc1cc(OCCC(C(F)(F)F)C(F)(F)F)c2nc(C)c(C(=O)NC3CCCC3O)n2c1 (centres unmarked) [Example 173, N-(2-hydroxycyclopentyl)-2,6-dimethyl-8-[4,4,4-trifluoro-3-(trifluoromethyl)butoxy]imidazo[1,2-a]pyridine-3-carboxamide]	3

Compound	minimal effective concentration [µM]
Cc1nc2c(OCc3c(F)cccc3F)cccn2c1C(=O)NCCC1(O)CCCC1 [Example 117, 8-[(2,6-difluorobenzyl)oxy]-N-[2-(1-hydroxycyclopentyl)ethyl]-2-methylimidazo[1,2-a]pyridine-3-carboxamide]	0.03
Cc1nc2c(OCc3c(F)cccc3F)cccn2c1C(=O)NC1(CO)CCCC1 [Example 31, 8-[(2,6-difluorobenzyl)oxy]-N-[1-(hydroxymethyl)cyclopentyl]-2-methylimidazo[1,2-a]pyridine-3-carboxamide]	1
Cc1nc2c(OCC3CCCCC3)cccn2c1C(=O)N[C@@H]1CCC[C@@H]1O (relative stereo) [Example 81, 8-(cyclohexylmethoxy)-N-[cis-2-hydroxycyclopentyl]-2-methylimidazo[1,2-a]-pyridine-3-carboxamide]	0.65
CCOCC(CO)NC(=O)c1c(C)nc2c(OCc3c(F)cccc3F)cccn12 (racemic) [Example 160, rac-8-[(2,6-Difluorobenzyl)oxy]-N-(1-ethoxy-3-hydroxypropan-2-yl)-2-methylimidazo[1,2-a]-pyridine-3-carboxamide]	0.3
CCCC[C@H](CO)NC(=O)c1c(C)nc2c(OCc3c(F)ccc(F)c3F)cccn12 [Example 2, N-[(2R)-1-hydroxyhexan-2-yl]-2-methyl-8-[(2,3,6-trifluorobenzyl)oxy]imidazo[1,2-a]pyridine-3-carboxamide]	0.03
CCC[C@H](CO)NC(=O)c1c(C)nc2c(OCC3CCCCC3)cccn12 [Example 67, 8-(cyclohexylmethoxy)-N-[(2R)-1-hydroxypentan-2-yl]-2-methylimidazo[1,2-a]pyridine-3-carboxamide]	0.03
Cc1nc2c(OCC3CCCCC3)cccn2c1C(=O)NCCOCCO [Example 86, 8-(cyclohexylmethoxy)-N-[2-(2-hydroxyethoxy)ethyl]-2-methylimidazo[1,2-a]-pyridine-3-carboxamide]	0.65
Cc1nc2c(OCc3c(F)cccc3F)cccn2c1C(=O)NC(CO)CCC(F)(F)F (racemic) [Example 101, rac-8-[(2,6-difluorobenzyl)oxy]-2-methyl-N-(5,5,5-trifluoro-1-hydroxypentan-2-yl)-imidazo[1,2-a]pyridine-3-carboxamide trifluoroacetate]	0.1
Cc1nc2c(OCc3c(F)cccc3F)cccn2c1C(=O)NC(c1ccc(Cl)cc1)C(C)(C)O (racemic) [Example 151, rac-N-[1-(4-chlorophenyl)-2-hydroxy-2-methylpropyl]-8-[(2,6-difluorobenzyl)oxy]-2-methylimidazo[1,2-a]pyridine-3-carboxamide]	0.3
Cc1nc2c(OCc3c(F)cccc3F)cccn2c1C(=O)N[C@@H](CO)CCO [Example 129, 8-[(2,6-difluorobenzyl)oxy]-N-[(2R)-1,4-dihydroxybutan-2-yl)-2-methylimidazo[1,2-a]pyridine-3-carboxamide]	3
CCCC[C@H](CO)NC(=O)c1c(C)nc2c(OCc3cccc(Cl)c3Cl)cccn12 [Example 9, 8-[(2,3-dichlorobenzyl)oxy]-N-[(2R)-1-hydroxy-hexan-2-yl]-2-methylimidazo[1,2-a]pyridine-3-carboxamide]	0.5
Cc1nc2c(OCc3c(F)cccc3F)cccn2c1C(=O)NC(CC(F)(F)F)C(C)(C)O (single isomer, unassigned; ent-8) [Example 154, ent-8-[(2,6-Difluorobenzyl)oxy]-2-methyl-N-(1,1,1-trifluoro-4-hydroxy-4-methylpentan-3-yl)-imidazo[1,2-a]pyridine-3-carboxamide (enantiomer B)]	0.03
CCCC[C@H](CO)NC(=O)c1c(C)nc2c(OCc3c(F)cccc3F)cc(C3CC3)cn12 [Example 61, 6-cyclopropyl-8-[(2,6-difluorobenzyl)oxy]-N-[(2R)-1-hydroxyhexan-2-yl]-2-methylimidazo[1,2-a]pyridine-3-carboxamide]	1
CCCC[C@H](CO)NC(=O)c1c(C)nc2c(OCc3c(F)cccc3Cl)cccn12 [Example 3, 8-[(2-chloro-6-fluorobenzyl)oxy]-N-[(2R)-1-hydroxyhexan-2-yl]-2-methylimidazo[1,2-a]pyridine-3-carboxamide]	0.1
Cc1nc2c(OCc3c(F)cccc3F)cccn2c1C(=O)NCCCO [Example 22, 8-[(2,6-difluorobenzyl)oxy]-N-(3-hydroxy-propyl)-2-methylimidazo[1,2-a]pyridine-3-carboxamide]	1
Cc1nc2c(OCc3c(F)cccc3F)cccn2c1C(=O)NC(CCCC(F)(F)F)C(C)(C)O (single isomer, unassigned; ent-8) [Example 156, ent-8-[(2,6-Difluorobenzyl)oxy]-2-methyl-N-(7,7,7-trifluoro-2-hydroxy-2-methylheptan-3-yl)-imidazo[1,2-a]pyridine-3-carboxamide (enantiomer B)]	0.03
